target: T1, human GPR119 (Homo sapiens, UniProt Q8TDV5); test: AlphaScreen cAMP assay in MIN6 cells stably transfected with human GPR119; format: cell-based; details: Min-6/hGPR119 cells, 45 min at room temperature
T1 construct: expression vector for human GPR119 cDNA (Acc. No. NP_848566); expressed in transfected cells; Min-6/hGPR119
T1 sequence (Q8TDV5 1-335): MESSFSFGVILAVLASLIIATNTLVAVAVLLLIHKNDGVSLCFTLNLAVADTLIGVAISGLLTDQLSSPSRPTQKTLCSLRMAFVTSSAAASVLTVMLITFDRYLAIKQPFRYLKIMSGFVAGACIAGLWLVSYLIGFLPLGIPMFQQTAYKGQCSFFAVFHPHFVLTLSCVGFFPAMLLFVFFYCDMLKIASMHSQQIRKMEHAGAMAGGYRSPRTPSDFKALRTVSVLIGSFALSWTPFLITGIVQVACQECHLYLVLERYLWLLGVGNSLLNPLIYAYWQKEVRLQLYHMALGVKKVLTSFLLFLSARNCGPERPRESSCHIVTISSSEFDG
In short: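 cAMP accumulation quantified by AlphaScreen after 45 min compound stimulation at about 20 °C. Stimulation buffer: pH 7.4 HEPES saline with 0.5 mM IBMX, 0.1% BSA, 1% DMSO final. Cells: MIN6 stably transfected with human GPR119, 10000/well, cultured 24 h beforehand.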

Compound	EC50 [nM]
COC(C)CN(C)C(=O)c1ccc(-c2ncc(C(=O)N(C3CC3)C3CCN(C(=O)OC(C)(C)C)CC3)cn2)c(F)c1 (stereo not shown) [Example 157, 4-[Cyclopropyl-(2-{2-fluoro-4-[(2-methoxy-propyl)-methyl-carbamoyl]-phenyl}-pyrimidine-5-carbonyl)-amino]-piperidine-1-carboxylic acid tert-butyl ester]	401
CN(CC1CCOCC1)C(=O)c1ccc(-c2ncc(C(=O)N(C3CC3)C3CCN(C(=O)OC(C)(C)C)CC3)cn2)cc1F [Example 158, 4-[Cyclopropyl-(2-{3-fluoro-4-[methyl-(tetrahydro-pyran-4-ylmethyl)-carbamoyl]-phenyl}-pyrimidine-5-carbonyl)-amino]-piperidine-1-carboxylic acid tert-butyl ester]	359
COc1ccc(NC(=O)c2ccc(-c3ncc(C(=O)N(C4CC4)C4CCN(C(=O)OC(C)(C)C)CC4)cn3)c(F)c2)cn1 [Example 159, 4-(Cyclopropyl-{2-[2-fluoro-4-(6-methoxy-pyridin-3-ylcarbamoyl)-phenyl]-pyrimidine-5-carbonyl}-amino)-piperidine-1-carboxylic acid tert-butyl ester]	303
COCCN(C)C(=O)c1ccc(-c2ncc(C(=O)N(C3CC3)C3CCN(C(=O)OC(C)(C)C)CC3)cn2)cc1F [Example 160, 4-[Cyclopropyl-(2-{3-fluoro-4-[(2-methoxy-ethyl)-methyl-carbamoyl]-phenyl}-pyrimidine-5-carbonyl)-amino]-piperidine-1-carboxylic acid tert-butyl ester]	229
CC(C)(C)OC(=O)N1CCC(N(C(=O)c2cnc(-c3ccc(C(=O)N4CCC[C@@H]4C#N)c(F)c3)nc2)C2CC2)CC1 [Example 161, 4-({2-[4-(2-Cyano-pyrrolidine-1-carbonyl)-3-fluoro-phenyl]-pyrimidine-5-carbonyl}-cyclopropyl-amino)-piperidine-1-carboxylic acid tert-butyl ester]	278
CC(C)(C)OC(=O)N1CCC(N(C(=O)c2cnc(-c3ccc(C(=O)NCc4cncnc4)c(F)c3)nc2)C2CC2)CC1 [Example 162, 4-[Cyclopropyl-(2-{3-fluoro-4-[(pyrimidin-5-ylmethyl)-carbamoyl]-phenyl}-pyrimidine-5-carbonyl)-amino]-piperidine-1-carboxylic acid tert-butyl ester]	501
CC(C)(C)OC(=O)N1CCC(N(C(=O)c2cnc(-c3ccc(C(=O)N4CCC(C#N)C4)c(F)c3)nc2)C2CC2)CC1 (stereo not shown) [Example 163, 4-({2-[4-(3-Cyano-pyrrolidine-1-carbonyl)-3-fluoro-phenyl]-pyrimidine-5-carbonyl}-cyclopropyl-amino)-piperidine-1-carboxylic acid tert-butyl ester]	405
CN(Cc1cccnc1)C(=O)c1ccc(-c2ncc(C(=O)N(C3CC3)C3CCN(C(=O)OC(C)(C)C)CC3)cn2)c(F)c1 [Example 166, 4-(Cyclopropyl-{2-[2-fluoro-4-(methyl-pyridin-3-ylmethyl-carbamoyl)-phenyl]-pyrimidine-5-carbonyl}-amino)-piperidine-1-carboxylic acid tert-butyl ester]	359
CC(C)(C)OC(=O)N1CCC(N(C(=O)c2cnc(-c3ccc(C(=O)NC4CCC(O)CC4)cc3)nc2)C2CC2)CC1 (stereo not shown) [Example 171, 4-(Cyclopropyl-{2-[4-(4-hydroxy-cyclohexylcarbamoyl)-phenyl]-pyrimidine-5-carbonyl}-amino)-piperidine-1-carboxylic acid tert-butyl ester]	383
COC(C)CN(C)C(=O)c1ccc(-c2ncc(C(=O)N(C3CC3)C3CCN(C(=O)OC(C)(C)C)CC3)cn2)cc1 (stereo not shown) [Example 173, 4-[Cyclopropyl-(2-{4-[(2-methoxy-propyl)-methyl-carbamoyl]-phenyl}-pyrimidine-5-carbonyl)-amino]-piperidine-1-carboxylic acid tert-butyl ester]	234
CC(C)(C)OC(=O)N1CCC(N(C(=O)c2cnc(-c3ccc(C(=O)Nc4ccc(CO)cc4)cc3)nc2)C2CC2)CC1 [Example 176, 4-(Cyclopropyl-{2-[4-(4-hydroxymethyl-phenylcarbamoyl)-phenyl]-pyrimidine-5-carbonyl}-amino)-piperidine-1-carboxylic acid tert-butyl ester]	346
CN(CCC#N)C(=O)c1ccc(-c2ncc(C(=O)N(C3CC3)C3CCN(C(=O)OC(C)(C)C)CC3)cn2)cc1 [Example 177, 4-[(2-{4-[(2-Cyano-ethyl)-methyl-carbamoyl]-phenyl}-pyrimidine-5-carbonyl)-cyclopropyl-amino]-piperidine-1-carboxylic acid tert-butyl ester]	456
CC(C)(C)OC(=O)N1CCC(N(C(=O)c2cnc(-c3ccc(C(=O)N4CCCOCC4)cc3)nc2)C2CC2)CC1 [Example 178, 4-(Cyclopropyl-{2-[4-([1,4]oxazepane-4-carbonyl)-phenyl]-pyrimidine-5-carbonyl}-amino)-piperidine-1-carboxylic acid tert-butyl ester]	237
CO[C@@H]1CCN(C(=O)c2ccc(-c3ncc(C(=O)N(C4CC4)C4CCN(C(=O)OC(C)(C)C)CC4)cn3)cc2)C1 [Example 179, 4-(Cyclopropyl-{2-[4-(3-methoxy-pyrrolidine-1-carbonyl)-phenyl]-pyrimidine-5-carbonyl}-amino)-piperidine-1-carboxylic acid tert-butyl ester]	338
CC(C)(C)OC(=O)N1CCC(N(C(=O)c2cnc(-c3ccc(CC(=O)Nc4ccccc4)cc3)nc2)C2CC2)CC1 [Example 180, 4-{Cyclopropyl-[2-(4-phenylcarbamoylmethyl-phenyl)-pyrimidine-5-carbonyl]-amino}-piperidine-1-carboxylic acid tert-butyl ester]	289
COCC1CCCCN1C(=O)c1ccc(-c2ncc(C(=O)N(C3CC3)C3CCN(C(=O)OC(C)(C)C)CC3)cn2)cc1 (stereo not shown) [Example 182, 4-(Cyclopropyl-{2-[4-(2-methoxymethyl-piperidine-1-carbonyl)-phenyl]-pyrimidine-5-carbonyl}-amino)-piperidine-1-carboxylic acid tert-butyl ester]	319

Other lines, results leading:

EC50 [nM]	Compound
221	COC1CCN(C(=O)c2ccc(-c3ncc(C(=O)N(C4CC4)C4CCN(C(=O)OC(C)(C)C)CC4)cn3)cc2F)CC1 [Example 164, 4-(Cyclopropyl-{2-[3-fluoro-4-(4-methoxy-piperidine-1-carbonyl)-phenyl]-pyrimidine-5-carbonyl}-amino)-piperidine-1-carboxylic acid tert-butyl ester]
173	CC(C)(C)OC(=O)N1CCC(N(C(=O)c2cnc(-c3ccc(C(=O)NCc4cccnc4)c(F)c3)nc2)C2CC2)CC1 [Example 165, 4-[Cyclopropyl-(2-{3-fluoro-4-[(pyridin-3-ylmethyl)-carbamoyl]-phenyl}-pyrimidine-5-carbonyl)-amino]-piperidine-1-carboxylic acid tert-butyl ester]
146	COCCNC(=O)c1ccc(-c2ncc(C(=O)N(C3CC3)C3CCN(C(=O)OC(C)(C)C)CC3)cn2)cc1F [Example 167, 4-(Cyclopropyl-{2-[3-fluoro-4-(2-methoxy-ethylcarbamoyl)-phenyl]-pyrimidine-5-carbonyl}-amino)-piperidine-1-carboxylic acid tert-butyl ester]
179	CC(C)(C)OC(=O)N1CCC(N(C(=O)c2cnc(-c3ccc(C(=O)NCCn4ccc(C5CC5)n4)c(F)c3)nc2)C2CC2)CC1 [Example 169, 4-[Cyclopropyl-(2-{4-[2-(3-cyclopropyl-pyrazol-1-yl)-ethylcarbamoyl]-3-fluoro-phenyl}-pyrimidine-5-carbonyl)-amino]-piperidine-1-carboxylic acid tert-butyl ester]
208	CN(Cc1ccncc1)C(=O)c1ccc(-c2ncc(C(=O)N(C3CC3)C3CCN(C(=O)OC(C)(C)C)CC3)cn2)cc1 [Example 170, 4-(Cyclopropyl-{2-[4-(methyl-pyridin-4-ylmethyl-carbamoyl)-phenyl]-pyrimidine-5-carbonyl}-amino)-piperidine-1-carboxylic acid tert-butyl ester]
226	COCC(C)N(C)C(=O)c1ccc(-c2ncc(C(=O)N(C3CC3)C3CCN(C(=O)OC(C)(C)C)CC3)cn2)cc1 (stereo not shown) [Example 172, 4-[Cyclopropyl-(2-{4-[(2-methoxy-1-methyl-ethyl)-methyl-carbamoyl]-phenyl}-pyrimidine-5-carbonyl)-amino]-piperidine-1-carboxylic acid tert-butyl ester]
170	COc1ccc(NC(=O)c2ccc(-c3ncc(C(=O)N(C4CC4)C4CCN(C(=O)OC(C)(C)C)CC4)cn3)cc2)cn1 [Example 174, 4-(Cyclopropyl-{2-[4-(6-methoxy-pyridin-3-ylcarbamoyl)-phenyl]-pyrimidine-5-carbonyl}-amino)-piperidine-1-carboxylic acid tert-butyl ester]
165	CCOCCNC(=O)c1ccc(-c2ncc(C(=O)N(C3CC3)C3CCN(C(=O)OC(C)(C)C)CC3)cn2)cc1 [Example 175, 4-(Cyclopropyl-{2-[4-(2-ethoxy-ethylcarbamoyl)-phenyl]-pyrimidine-5-carbonyl}-amino)-piperidine-1-carboxylic acid tert-butyl ester]
206	COC1CCN(C(=O)c2ccc(-c3ncc(C(=O)N(C4CC4)C4CCN(C(=O)OC(C)(C)C)CC4)cn3)cc2)CC1 [Example 181, 4-(Cyclopropyl-{2-[4-(4-methoxy-piperidine-1-carbonyl)-phenyl]-pyrimidine-5-carbonyl}-amino)-piperidine-1-carboxylic acid tert-butyl ester]

Source: US20140045823A1 (Neurocrine Biosciences, Inc., priority 2012, published 2014)
